Assay results from patent publication US10183913B2, “Pyrazole compound” (Sumitomo Dainippon Pharma Co., Ltd., priority 2010, dated 2019).
Read-outs that look alike come from different tables or passages of the source.

Experiments:
[1] = target: T1, human serotonin 2C receptor (h-5-HT2C) (Homo sapiens (Human), UniProt P28335); assay: [3H] mesulergine binding assay to evaluate affinity for human 5-HT2C receptor; details: h-5-HT2C/CHO membrane preparation, read-out: Test Ex. 2: 5-HT2C receptor binding inhibition constant Ki
T1 sequence (P28335 whole entry, looked up): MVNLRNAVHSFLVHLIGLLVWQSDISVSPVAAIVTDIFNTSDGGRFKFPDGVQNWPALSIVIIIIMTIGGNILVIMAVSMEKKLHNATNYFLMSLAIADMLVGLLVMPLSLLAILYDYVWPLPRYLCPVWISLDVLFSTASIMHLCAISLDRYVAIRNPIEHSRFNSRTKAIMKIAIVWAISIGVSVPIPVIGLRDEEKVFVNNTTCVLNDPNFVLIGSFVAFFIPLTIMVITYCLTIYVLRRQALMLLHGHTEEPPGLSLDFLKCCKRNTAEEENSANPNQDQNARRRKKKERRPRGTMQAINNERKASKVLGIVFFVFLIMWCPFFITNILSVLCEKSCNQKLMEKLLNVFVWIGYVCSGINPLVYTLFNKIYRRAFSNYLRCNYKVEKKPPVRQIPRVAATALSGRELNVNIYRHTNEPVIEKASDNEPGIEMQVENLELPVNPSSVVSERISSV
Procedure: Mesulergine Binding Assay to Evaluate Affinity for Human 5-HT2C Receptor
(§1) Preparation of the Cells and Membrane Preparations
In the experiment, human serotonin 2C receptor (h-5-HT2C) was expressed in CHO cells (h-5-HT2C/CHO). The cells were incubated with UltraCHO Lipuid (trademark) (manufactured by BioWhitakker) containing 1% FBS, 400 μg/mL Geneticin, 100 U/mL penicillin—100 μg/mL streptomycin (all manufactured by Sigma Aldrich) and 250 μg/mL Zeosin (manufactured by InvivoGen) in an incubator containing 5% CO2; detached and collected using 50 mmol/L Tris-HCl (pH=7.4); homogenized with a homogenizer manufactured by Teflon (trademark); and then centrifuged (48,000×g, 25 min, 4° C.). The precipitate was suspended again in the appropriate amount of 50 mmol/L Tris-HCl (to give a membrane preparation), and stored at −80° C. until used. The amount of protein in the membrane preparation was assayed by Dye Reagent Concentrate (manufactured by BIO-RAD) using bovine serum albumin (manufactured by Sigma Aldrich) as a standard.
2-2. 5-HT2C Receptor Binding Assay
A solution of 200 μL in total was prepared by mixing 50 μL of [^3H] mesulergine (manufactured by GE Healthcare) diluted with 50 mmol/L Tris-HCl (pH=7.4) (final concentration: about 2 nmol/L), 149 μL of the h-5-HT2C/CHO membrane preparation (protein amount: 20 μg/well), and 1 μL of the test drug dissolved in dimethylsulfoxide. The solution was reacted at 37° C. for 30 minutes, and then quickly suction-filtered under reduced pressure through a glass fiber filter coated with 1% aq. bovine serum albumin. The glass fiber filter was washed twice with 250 μL of 50 mmol/L Tris-HCl (pH=7.4), placed in a plastic vial containing 4 mL of liquid scintillator (ACS-II, manufactured by Amersham) or Ecoscint A (manufactured by National Diagnostics), and the remaining radioactivity on the filter paper was assayed with a liquid scintillation counter. The non-specific binding of [^3H] mesulergine was defined as a binding amount in the presence of 10 μmol/L SB206553 (manufactured by Sigma Aldrich). The IC50 value was calculated according to Hill analysis, and the binding inhibition constant (Ki) was calculated according to the following formula: Binding inhibition constant (Ki)=IC50/(1+S/Kd) wherein S is a concentration of the added [^3H] mesulergine, and Kd is a binding dissociation constant of [^3H] mesulergine which was calculated from a saturated binding assay using the same cell membrane.

[2] = target: T1, human serotonin 2C receptor (h-5-HT2C); assay: 5-HT2C receptor agonistic action assay (FLIPR Calcium 4 Assay kit, h-5-HT2C/CHO cells); type: cell-based
Procedure: 3-1. The Cells and Inoculation Thereof
In the experiment, human serotonin 2C receptor (h-5-HT2C) was expressed in CHO cells (h-5-HT2C/CHO). The cells were incubated with UltraCHO Lipuid (trademark) (manufactured by BioWhitakker) containing 1% FBS, 400 μg/mL Geneticin, 100 U/mL penicillin—100 μg/mL streptomycin (all manufactured by Sigma Aldrich) and 250 μg/mL Zeosin (manufactured by InvivoGen) in an incubator containing 5% CO2. On the day before using the cells, they were detached and collected using 250 μg/mL Trypsin solution (manufactured by Nacalai Tesque), then inoculated in a 96 well flat clear bottom black polystyrene TC-treated microplates (manufactured by Corning) at 40000 cells/well/60 μL in an incubator containing 5% CO2 for 16 hours to 24 hours.
3-2. 5-HT2C Receptor Agonistic Action Assay
The 5-HT2C receptor agonistic action was evaluated with FLIPR Calcium 4 Assay kit (manufactured by Molecular Devices). In specific, to the cells inoculated in the plate were added Component A of FLIPR Calcium 4 Assay kit dissolved in 100 mL of HHBP buffer (1×Hanks buffer, 20 mmol/L HEPES, both manufactured by Gibco) at an amount of 40 μL/well, and the cells were incubated in an incubator containing 5% CO2 for 1 hour. Then, the cells were set in FLIPR TETRA (trademark) (manufactured by Molecular Devices), to the cells was added the test material diluted with HHBP buffer, 2.5 mmol/L Probenecid (manufactured by Sigma) (concentration after dilution: 10 μmol/L) at an amount of 20 μL/well, and the fluorescence was measured. Then, in order to evaluate the antagonistic action of the test material, 20 μL/well of 5-HT solution (manufactured by Sigma, final concentration: 0.1 nmol/L) was further added to the cells, and the fluorescence was measured.
The 5-HT2C receptor agonistic action of each test material was calculated as a rate of fluorescence enhancement wherein 100% was defined as a value when the cells were given 10 μmol/L 5-HT. Furthermore, the 5-HT2C receptor inverse agonistic action was calculated as a rate of fluorescence decay wherein −100% was defined as a value when the cells were given 10 μmol/L SB206553 (manufactured by Sigma Aldrich). A lower value of the 5-HT2C receptor agonistic action of the test material means that the material has a higher antagonistic action. In particular, when the value of the 5-HT2C receptor agonistic action of the test material is below 0%, the material has an inverse agonistic action for 5-HT2C receptor.

[3] = target: human serotonin transporter (h-SERT) (Homo sapiens (Human), UniProt P31645); assay: [3H] citalopram binding assay to evaluate human serotonin reuptake inhibitory action (h-SERT binding assay)
Procedure: Citalopram Binding Assay to Evaluate Human Serotonin Reuptake Inhibitory Action
as §1
In the experiment, human serotonin transporter (h-SERT) was expressed in CHO cells (h-SERT/CHO). The cells were incubated with F12 containing 10% FCS, 500 μg/mL Geneticin and 100 U/mL penicillin—100 μg/mL streptmycin (all manufactured by Sigma Aldrich) in an incubator containing 5% CO2; detached and collected using a SERT buffer [50 mmol/L Tris-HCl comprising 120 mmol/L NaCl and 5 mmol/L KCl (pH=7.4)]; homogenized with a homogenizer manufactured by Teflon (trademark); and then centrifuged (50,000×g, 30 min, 4° C.). The precipitate was suspended again in the appropriate amount of SERT buffer (to give a membrane preparation), and stored at −80° C. until used. The amount of protein in the membrane preparation was assayed by Dye Reagent Concentrate (manufactured by BIO-RAD) using bovine serum albumin (manufactured by Sigma Aldrich) as a standard.
1-2. h-SERT Binding Assay
The [^3H] citalopram binding was measured according to the method disclosed in Owens M. J. et al., J. Pharm. […] The solution was reacted at room temperature for 60 minutes, and then quickly suction-filtered under reduced pressure through a glass fiber filter coated with 0.05% aq. polyethyleneimine. The glass fiber filter was washed twice with […] of the SERT buffer, placed in a plastic vial containing 4 mL of liquid scintillator (ACS-II, manufactured by Amersham) or Ecoscint A (manufactured by National Diagnostics), and the remaining radioactivity on the filter paper was assayed with a liquid scintillation counter.

[4] = [3H] citalopram binding, read-out: Test Ex. 1: h-SERT binding inhibition constant Ki
[5] = test material 10 μmol/L, 100% = 10 μmol/L 5-HT, −100% = 10 μmol/L SB206553, below 0% = inverse agonistic action

| Compound | Ki [1] [nM] | Test Ex. 3: 5-HT2C receptor agonistic action [2] [%] | Ki [3, 4] [nM] | Test Ex. 3: 5-HT2C receptor agonistic action [2, 5] [%] | Ki [3] [nM] |
| --- | --- | --- | --- | --- | --- |
| CNCc1cc(OCc2ccccc2)n(CCCc2ccccc2)n1 [Example 3, 1-[5-(Benzyloxy)-1-(3-phenylpropyl)-1H-pyrazol-3-yl]-N-methylmethanamine] | 5.4 | −91 | 12 | – | – |
| CCNCc1cc(OCc2cc(F)ccc2F)n(CC2CCCCC2)n1 [Example 344, N-({1-(Cyclohexylmethyl)-5-[(2,5-difluorobenzyl)oxy]-1H-pyrazol-3-yl}methyl)ethanamine] | 6.7 | −82 | 33 | – | – |
| CNCc1cc(OCc2cc(F)ccc2F)n(CCC(C)(C)F)n1.Cl [Example 481, 1-{5-[(2,5-Difluorobenzyl)oxy]-1-(3-fluoro-3-methylbutyl)-1H-pyrazol-3-yl}-N-methylmethanamine hydrochloride] | 22 | −109 | 0.85 | – | – |
| CNCc1cc(OC(C)c2cccc(Cl)c2)n(CC2CCCCC2)n1.Cl (stereo not drawn) [Example 350, 1-{5-[1-(3-Chlorophenyl)ethoxy]-1-(cyclohexylmethyl)-1H-pyrazol-3-yl}-N-methylmethanamine hydrochloride] | 11 | – | 53 | −92 | – |
| CNCc1cc(OCc2ccc(F)cc2F)n(CC2CCCC2)n1 [Example 144, 1-{1-(cyclopentylmethyl)-5-[(2,4-difluorobenzyl)oxy]-1H-pyrazol-3-yl}-N-methylmethanamine] | 2.2 | −127 | 8.3 | – | – |
| CNCc1cc(OCc2ccc(F)cc2C)n(CC2CCCCO2)n1 (stereo not drawn) [Compound 108] | 18 | – | 1.9 | −117 | – |
| CNCc1cc(OCc2cccc(Cl)c2)n(CC2CCc3ccccc3O2)n1.Cl (stereo not drawn) [Example 341, 1-{5-[(3-Chlorobenzyl)oxy]-1-(3,4-dihydro-2H-chromen-2-ylmethyl)-1H-pyrazol-3-yl}-N-methylmethanamine hydrochloride] | 12 | – | 23 | −71 | – |
| CNCc1cc(OCc2ccccc2)n(C(CO)C2CCCCC2)n1.Cl (stereo not drawn) [Example 328, 2-{5-(Benzyloxy)-3-[(methylamino)methyl]-1H-pyrazol-1-yl}-2-cyclohexyl-ethanol hydrochloride] | 193 | – | – | −116 | 3.6 |
| CNCc1cc(OCc2ccccc2F)n(Cc2ccc(F)cc2)n1 [Example 218, 1-{1-(4-fluorobenzyl)-5-[(2-fluorobenzyl)oxy]-1H-pyrazol-3-yl}-N-methylmethanamine] | 10 | – | 9.7 | −111 | – |
| Cl.NCc1cc(OCc2cc(F)ccc2F)n(CC2CCCC2)n1 [Example 347, 1-{1-(Cyclopentylmethyl)-5-[(2,5-difluorobenzyl)oxy]-1H-pyrazol-3-yl}methanamine hydrochloride] | 31 | – | – | −114 | 13 |
| CNCc1cc(SCc2ccccc2)n(Cc2ccccc2)n1.Cl [Example 355, 1-[1-Benzyl-5-(benzylsulfanyl)-1H-pyrazol-3-yl]-N-methylmethanamine hydrochloride] | 17 | – | – | −72 | 32 |
| CNCc1cc(OCc2cc(Cl)ccc2F)n(CCC(C)(C)F)n1.Cl [Example 482, 1-{5-[(5-Chloro-2-fluorobenzyl)oxy]-1-(3-fluoro-3-methylbutyl)-1H-pyrazol-3-yl}-N-methylmethanamine hydrochloride] | 2.6 | – | 2.9 | −116 | – |
| CNCc1cc(OC(F)(F)c2ccccc2)n(CC2CCCCC2)n1.Cl [Example 349, 1-{1-(Cyclohexylmethyl)-5-[difluoro(phenyl)methoxy]-1H-pyrazol-3-yl}-N-methylmethanamine hydrochloride] | 18 | – | – | −82 | 3 |
| CNCc1cc(OCc2cc(Cl)ccc2F)n(CCC(C)OC)n1 (stereo not drawn) [Compound 405] | 23 | – | 11 | −90 | – |
